Results from PubChem BioAssay (NCI).
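Where inhibition never reached the appropriate level, the endpoint shown equals the highest concentration tested. Otherwise, values were interpolated linearly from a five-concentration, 48-hour dose response in 96-well plates. GI50 is the concentration that inhibits growth by half. Definition used: TGI = concentration required for complete inhibition of growth.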

Legend:
Test in all cases: NCI-60 cell line screen, 48 h
IGROV1 ovarian = test system: IGROV1 ovarian
NCI-H226 lung = test system: NCI-H226 lung
NCI-H460 lung = test system: NCI-H460 lung
HT29 colon = test system: HT29 colon
MOLT-4 leukemia = test system: MOLT-4 leukemia
SF-539 CNS = test system: SF-539 CNS
KM12 colon = test system: KM12 colon
K-562 leukemia = test system: K-562 leukemia
M14 melanoma = test system: M14 melanoma
PC-3 prostate = test system: PC-3 prostate

## CCC[CH2][Sn]([CH2]CCC)([CH2]CCC)[O]C(=O)C(OC(C)=O)c1ccccc1 (stereo not drawn)
IGROV1 ovarian
  GI50: 0.153 µM
  TGI: 0.323 µM
NCI-H226 lung
  GI50: 0.178 µM
  TGI: 0.336 µM
NCI-H460 lung
  GI50: 138 nM
  TGI: 0.28 µM
HT29 colon
  GI50: 0.127 µM
  TGI: 0.26 µM
MOLT-4 leukemia
  GI50: 53.9 nM
  TGI: 0.42 µM
SF-539 CNS
  GI50: 0.165 µM
  TGI: 0.306 µM
KM12 colon
  GI50: 0.109 µM
  TGI: 0.23 µM
K-562 leukemia
  GI50: 0.109 µM
  TGI: 0.349 µM
M14 melanoma
  GI50: 0.138 µM
  TGI: 0.267 µM

## O=C1CSC(c2ccc(-c3nc4ccccc4[nH]3)cc2)=N1
IGROV1 ovarian
  GI50: 21.9 µM
  TGI: > 50 µM
NCI-H460 lung
  GI50: 3270 nM
  TGI: > 50 µM
PC-3 prostate
  GI50: > 50 µM
  TGI: > 50 µM
SF-539 CNS
  GI50: 12.2 µM
  TGI: 42.1 µM
KM12 colon
  GI50: 22.8 µM
  TGI: > 50 µM
K-562 leukemia
  GI50: 5.64 µM
  TGI: 17.5 µM
M14 melanoma
  GI50: 19.7 µM
  TGI: > 50 µM

## Cc1ccc(NC(=O)C(=O)C(C(=O)c2ccc3ccccc3c2)C2OC(=O)c3ccccc32)c(C)c1 (stereo not drawn)
IGROV1 ovarian
  TGI: 39.9 µM
NCI-H226 lung
  TGI: 15.8 µM
NCI-H460 lung
  TGI: 25.5 µM
HT29 colon
  TGI: 57.6 µM
MOLT-4 leukemia
  TGI: 23.7 µM
SF-539 CNS
  TGI: 19.4 µM
KM12 colon
  TGI: 45.5 µM
K-562 leukemia
  TGI: > 100 µM
M14 melanoma
  TGI: 36.9 µM

## CCOP(=O)(OCC)/C(C#N)=C\c1ccsc1
NCI-H226 lung
  TGI: > 100 µM
NCI-H460 lung
  TGI: > 100 µM
HT29 colon
  TGI: > 100 µM
MOLT-4 leukemia
  TGI: > 100 µM
SF-539 CNS
  TGI: > 100 µM
KM12 colon
  TGI: > 100 µM
M14 melanoma
  TGI: > 100 µM

## COc1cc2c3c(n(CCCCNC(=O)OC(C)(C)C)c(=O)c2cc1OC)-c1cc2c(cc1C3=O)OCO2
IGROV1 ovarian
  GI50: > 100 µM
  TGI: > 100 µM
NCI-H226 lung
  GI50: > 100 µM
  TGI: > 100 µM
NCI-H460 lung
  GI50: 5660 nM
  TGI: > 100 µM
PC-3 prostate
  GI50: > 100 µM
  TGI: > 100 µM
HT29 colon
  GI50: > 100 µM
  TGI: > 100 µM
SF-539 CNS
  GI50: 8.39 µM
  TGI: > 100 µM
KM12 colon
  GI50: > 100 µM
  TGI: > 100 µM
K-562 leukemia
  GI50: > 100 µM
  TGI: > 100 µM
M14 melanoma
  GI50: > 100 µM
  TGI: > 100 µM

## CC(C)=O.O=C([O-])C(F)(F)F.O=C([O-])C(F)(F)F.O=C([O-])C(F)(F)F.O=C([O-])C(F)(F)F.[Rh+2].[Rh+2]
IGROV1 ovarian
  GI50: > 100 µM
  TGI: > 100 µM
NCI-H226 lung
  GI50: > 100 µM
  TGI: > 100 µM
HT29 colon
  GI50: > 100 µM
  TGI: > 100 µM
MOLT-4 leukemia
  GI50: 15400 nM
  TGI: > 100 µM
SF-539 CNS
  GI50: > 100 µM
  TGI: > 100 µM
KM12 colon
  GI50: > 100 µM
  TGI: > 100 µM
K-562 leukemia
  GI50: 31.8 µM
  TGI: > 100 µM
M14 melanoma
  GI50: > 100 µM
  TGI: > 100 µM

## S=c1nc(C(c2ccccc2)c2ccccc2)[nH][nH]1
IGROV1 ovarian
  TGI: > 100 µM
NCI-H226 lung
  TGI: > 100 µM
NCI-H460 lung
  TGI: > 100 µM
HT29 colon
  TGI: > 100 µM
MOLT-4 leukemia
  TGI: > 100 µM
SF-539 CNS
  TGI: > 100 µM
KM12 colon
  TGI: > 100 µM
K-562 leukemia
  TGI: > 100 µM

## O=C(O)C1CCN(Cc2oc(CO)cc(=O)c2O)C1 (stereo not drawn)
IGROV1 ovarian
  TGI: > 100 µM
NCI-H226 lung
  TGI: > 100 µM
NCI-H460 lung
  TGI: > 100 µM
PC-3 prostate
  TGI: > 100 µM
HT29 colon
  TGI: > 100 µM
MOLT-4 leukemia
  TGI: > 100 µM
KM12 colon
  TGI: > 100 µM
K-562 leukemia
  TGI: > 100 µM
M14 melanoma
  TGI: > 100 µM

## CC1(C)OC2CC3COC(=O)C3CC2O1 (stereo not drawn)
IGROV1 ovarian
  TGI: > 100 µM
NCI-H226 lung
  TGI: > 100 µM
NCI-H460 lung
  TGI: > 100 µM
HT29 colon
  TGI: > 100 µM
MOLT-4 leukemia
  TGI: > 100 µM
SF-539 CNS
  TGI: > 100 µM
KM12 colon
  TGI: > 100 µM
K-562 leukemia
  TGI: > 100 µM
M14 melanoma
  TGI: > 100 µM

## COc1cc(O)c(C(=O)CC(C)=O)c(OC)c1
IGROV1 ovarian
  TGI: > 100 µM
NCI-H226 lung
  TGI: > 100 µM
NCI-H460 lung
  TGI: > 100 µM
HT29 colon
  TGI: > 100 µM
MOLT-4 leukemia
  TGI: > 100 µM
SF-539 CNS
  TGI: > 100 µM
KM12 colon
  TGI: > 100 µM
K-562 leukemia
  TGI: > 100 µM
M14 melanoma
  TGI: > 100 µM

## CC(C)(CN1CCOCC1)C(=O)/C=C/c1ccc(/C=C/C(=O)C(C)(C)CN2CCOCC2)cc1
IGROV1 ovarian
  TGI: 4.47 µM
NCI-H226 lung
  TGI: 5.22 µM
NCI-H460 lung
  TGI: 19.4 µM
HT29 colon
  TGI: 1.88 µM
MOLT-4 leukemia
  TGI: 0.694 µM
SF-539 CNS
  TGI: 3.69 µM
KM12 colon
  TGI: 2.92 µM

## Cn1cnc([N+](=O)[O-])c1Sc1nnnn1C
IGROV1 ovarian
  TGI: 49.1 µM
NCI-H226 lung
  TGI: > 100 µM
NCI-H460 lung
  TGI: > 100 µM
HT29 colon
  TGI: 40.5 µM
MOLT-4 leukemia
  TGI: 33.7 µM
SF-539 CNS
  TGI: 36.3 µM
KM12 colon
  TGI: > 100 µM
K-562 leukemia
  TGI: 42.3 µM
M14 melanoma
  TGI: 28.4 µM

## C#CCN(N=O)C(=O)NCCCCC(NC(=O)OCc1ccccc1)C(=O)OCc1ccccc1 (stereo not drawn)
IGROV1 ovarian
  TGI: > 100 µM
NCI-H226 lung
  TGI: > 100 µM
NCI-H460 lung
  TGI: > 100 µM
HT29 colon
  TGI: > 100 µM
MOLT-4 leukemia
  TGI: 50.6 µM
SF-539 CNS
  TGI: 37.4 µM
KM12 colon
  TGI: > 100 µM
K-562 leukemia
  TGI: 56.9 µM
M14 melanoma
  TGI: 68 µM

## O=C(N/C(=C\c1c(O)ccc2ccccc12)c1nc2ccccc2[nH]1)c1ccccc1
IGROV1 ovarian
  TGI: > 100 µM
NCI-H460 lung
  TGI: > 100 µM
HT29 colon
  TGI: > 100 µM
MOLT-4 leukemia
  TGI: > 100 µM
SF-539 CNS
  TGI: > 100 µM
KM12 colon
  TGI: > 100 µM
K-562 leukemia
  TGI: > 100 µM
M14 melanoma
  TGI: > 100 µM

## CSC(=Nc1ccccc1Cl)NC(=O)c1ccc(Br)cc1
IGROV1 ovarian
  TGI: > 100 µM
NCI-H226 lung
  TGI: > 100 µM
NCI-H460 lung
  TGI: > 100 µM
HT29 colon
  TGI: > 100 µM
MOLT-4 leukemia
  TGI: 54.9 µM
SF-539 CNS
  TGI: > 100 µM
KM12 colon
  TGI: > 100 µM
K-562 leukemia
  TGI: 45 µM
M14 melanoma
  TGI: > 100 µM

## CCN(CC)CCC(=O)OC1C(C)=CC(C)C(=O)CC(C(C)CC2CCC(O)C(OC)C2)OC(=O)C2CCCCN2C(=O)C(=O)[C@@]2(O)OC(CCC2C)CC(OC)\C(C)=C/C=C/C=C/C(C)CC(C)C(=O)C1OC (stereo partly drawn)
IGROV1 ovarian
  TGI: 14.7 µM
NCI-H226 lung
  TGI: 26.8 µM
NCI-H460 lung
  TGI: 23.8 µM
PC-3 prostate
  TGI: 22.4 µM
HT29 colon
  TGI: 19.9 µM
SF-539 CNS
  TGI: 15.2 µM
KM12 colon
  TGI: 21.2 µM
K-562 leukemia
  TGI: 21.4 µM
M14 melanoma
  TGI: 22.6 µM

## CCN(CCCl)CCCCCNc1c2ccccc2nc2ccc(OC)cc12
IGROV1 ovarian
  TGI: 4.24 µM
NCI-H226 lung
  TGI: 2.3 µM
NCI-H460 lung
  TGI: 1.51 µM
HT29 colon
  TGI: 2.94 µM
MOLT-4 leukemia
  TGI: 0.279 µM
SF-539 CNS
  TGI: 2.65 µM
KM12 colon
  TGI: 1.81 µM
K-562 leukemia
  TGI: 1.06 µM
M14 melanoma
  TGI: 9.74 µM

## NCCOCn1cc(Cc2cccc(OCc3ccccc3)c2)c(=O)[nH]c1=O
IGROV1 ovarian
  TGI: > 100 µM
NCI-H226 lung
  TGI: > 100 µM
NCI-H460 lung
  TGI: > 100 µM
HT29 colon
  TGI: > 100 µM
MOLT-4 leukemia
  TGI: > 100 µM
SF-539 CNS
  TGI: > 100 µM
KM12 colon
  TGI: > 100 µM
K-562 leukemia
  TGI: > 100 µM
M14 melanoma
  TGI: > 100 µM

## CCN(CC)CCCOc1ccc2ncnc(Nc3ccc(Oc4cccc(C(F)(F)F)c4)c(Cl)c3)c2c1
NCI-H460 lung
  GI50: 1780 nM
  TGI: 3.33 µM
PC-3 prostate
  GI50: 1.75 µM
  TGI: 3.58 µM
MOLT-4 leukemia
  GI50: 1880 nM
  TGI: 4.49 µM
SF-539 CNS
  GI50: 1.74 µM
  TGI: 3.17 µM
KM12 colon
  GI50: 1.77 µM
  TGI: 3.24 µM
K-562 leukemia
  GI50: 1.21 µM
  TGI: 8.73 µM
